From patent US20090018019A1, “INCREASING PATHOGEN DEFENCE IN PLANTS” (priority 2005, published 2009)

What was measured:
Test in all cases: DNA chip expression analysis of barley leaves after soil treatment
Type in all cases: in vivo
Conditions in all cases: 10 mg per plant to soil
[1] = test system: Contig2550_x_at PATHOGENESIS-RELATED PROTEIN 4
Method: (§1) Barley seeds (of the Baroness variety) were sown in pots containing soil about 2 cm deep (1250 g of sandy loam/per pot; the soil moisture content was adjusted to 70% of the maximum water-holding capacity) and cultivated in a climatized chamber under specified light, moisture and temperature conditions (15 h white light, 70% atmospheric humidity, 23-19° C. day/night).
(§2) 14 days after the emergence of the barley plants 10 mg of imidacloprid per plant, dissolved in 100 ml water, were applied by means of a pipette to the soil around the base of the shoot. The same volume of water without any active compound was applied to the control pots. After the soil treatment the plants were no longer watered. At various times after application (0.25; 1; 6; 8; 11; 13; 15; 16 and 17 days) the leaves were harvested, quick-frozen in liquid nitrogen and stored at −80° C. until further treatment.
(§3) The labelled RNA probes for the DNA chip hybridization were produced according to the protocols (Expression Analysis, Technical Manual) of the Affymetrix company (Affymetrix Inc., 3380 Central Expressway, Santa Clara, Calif., USA). Whole RNA was first of all isolated from in each case 500 mg of the harvested leaves. 10 μg portions of whole RNA were used for the first and second strand cDNA synthesis. The cDNA was amplified with T7 polymerase and simultaneously labelled with biotin-UTP. 20 μg portions of this biotinylated cDNA were used for the hybridization of the barley genome array (Barleyl Gene Chip, Item no: 511012) from Affymetrix. This DNA microarray contains DNA sequences of 22840 genes composed of a total of 400000 EST (Expressed Sequence Tag) sequences. Then the DNA microarrays were washed in the Affymetrix Fluidics Station, stained with streptavidin/phycoerythrin (Molecular Probes, P/N S-866) and scanned with the Affymetrix Gene Chip Scanner 3000. The fluorescence data obtained were analyzed with the Microarray Suite 5 software from Affymetrix and the Expressionist Pro software from the GeneData company. After a quality check, all of the DNA chip analyses were stored in a database. Since the Affymetrix Gene Chip System is based on measuring the absolute expression values of the genes contained in the chip, the expression values of the biological replicates of treated and non-treated plants were averaged after normalization (median calculation). With the aid of the statistical ANOVA method, those genes were identified whose expression was increased in the plants treated with imidacloprid but remained relatively constant in the untreated controls. The assembly of gene groups from specific metabolic pathways, signal transduction chains or functions was carried out by a keyword search through the gene annotations supplied by Affymetrix and by linking the genes to their corresponding Gene Ontology Annotations (Gene Ontology Consortium).

[2] = test system: Contig2990_at CHITINASE (EC 3.2.1.14)
Method: as §1, §2, §3

[3] = test system: Contig2214_s_at PATHOGENESIS RELATED PROTEIN (HV-1A)
Method: as §1, §2, §3

[4] = test system: Contig2210_at PATHOGENESIS-RELATED PROTEIN 1 PRECURSOR
Method: as §1, §2, §3

[5] = test system: Contig11773_at REGULATOR OF PAT[…]
Method: as §1, §2, §3

With O=[N+]([O-])/N=C1\NCCN1Cc1ccc(Cl)nc1 [imidacloprid] the “Induction factor = Expression (treated)/Expression (untreated)” value (from here on “Induction factor = Expression”) ([1]; 0.25 d) was 0.8, the “Median of the raw expression data, treated” value (“Median” below) ([1]; 0.25 days) was 68.63 and the “Induction factor = Expression” value ([1]; 1 d) was 0.7. For the same compound, the “Median” value ([1]; 1 day) was 54.66, the “Induction factor = Expression” value ([1]; 6 d) was 5.8 and the “Median” value ([1]; 6 days) was 716.14. For the same compound, the “Induction factor = Expression” value ([1]; 8 d) was 7.4, the “Median” value ([1]; 8 days) was 1121.61 and the “Induction factor = Expression” value ([1]; 11 d) was 6.1. The “Median” value ([1]; 11 days) was 771.21, the “Induction factor = Expression” value ([1]; 13 d) was 3.1 and the “Median” value ([1]; 13 days) was 150.42. The “Induction factor = Expression” value ([1]; 15 d) was 1.4, the “Median” value ([1]; 15 days) was 162.60 and the “Induction factor = Expression” value ([1]; 16 d) was 2.7. For the same compound, the “Median” value ([1]; 16 days) was 389.62, the “Induction factor = Expression” value ([1]; 17 d) was 0.9 and the “Median” value ([1]; 17 days) was 174.42. For the same compound, the “Induction factor = Expression” value ([2]; 0.25 d) was 0.9, the “Median” value ([2]; 0.25 days) was 31.12 and the “Induction factor = Expression” value ([2]; 1 d) was 0.9. The “Median” value ([2]; 1 day) was 29.13, the “Induction factor = Expression” value ([2]; 6 d) was 8.4 and the “Median” value ([2]; 6 days) was 561.20. For the same compound, the “Induction factor = Expression” value ([2]; 8 d) was 19.3, the “Median” value ([2]; 8 days) was 830.74 and the “Induction factor = Expression” value ([2]; 11 d) was 13.6. The “Median” value ([2]; 11 days) was 664.56, the “Induction factor = Expression” value ([2]; 13 d) was 3.0 and the “Median” value ([2]; 13 days) was 235.46. For the same compound, the “Induction factor = Expression” value ([2]; 15 d) was 1.1, the “Median” value ([2]; 15 days) was 227.32 and the “Induction factor = Expression” value ([2]; 16 d) was 2.5. For the same compound, the “Median” value ([2]; 16 days) was 76.80, the “Induction factor = Expression” value ([2]; 17 d) was 0.6 and the “Median” value ([2]; 17 days) was 32.84. For the same compound, the “Induction factor = Expression” value ([3]; 0.25 d) was 0.9, the “Median” value ([3]; 0.25 days) was 86.29 and the “Induction factor = Expression” value ([3]; 1 d) was 0.5. For the same compound, the “Median” value ([3]; 1 day) was 44.68, the “Induction factor = Expression” value ([3]; 6 d) was 9.8 and the “Median” value ([3]; 6 days) was 3322.93. For the same compound, the “Induction factor = Expression” value ([3]; 8 d) was 11.1, the “Median” value ([3]; 8 days) was 4807.28 and the “Induction factor = Expression” value ([3]; 11 d) was 9.3. For the same compound, the “Median” value ([3]; 11 days) was 4463.75, the “Induction factor = Expression” value ([3]; 13 d) was 5.1 and the “Median” value ([3]; 13 days) was 636.20. The “Induction factor = Expression” value ([3]; 15 d) was 3.0, the “Median” value ([3]; 15 days) was 808.24 and the “Induction factor = Expression” value ([3]; 16 d) was 2.4. The “Median” value ([3]; 16 days) was 1241.52, the “Induction factor = Expression” value ([3]; 17 d) was 0.6 and the “Median” value ([3]; 17 days) was 472.04. For the same compound, the “Induction factor = Expression” value ([4]; 0.25 d) was 0.6, the “Median” value ([4]; 0.25 days) was 143.08 and the “Induction factor = Expression” value ([4]; 1 d) was 0.4. The “Median” value ([4]; 1 day) was 78.12, the “Induction factor = Expression” value ([4]; 6 d) was 7.9 and the “Median” value ([4]; 6 days) was 6881.20. The “Induction factor = Expression” value ([4]; 8 d) was 8.8, the “Median” value ([4]; 8 days) was 8961.17 and the “Induction factor = Expression” value ([4]; 11 d) was 5.4. For the same compound, the “Median” value ([4]; 11 days) was 7946.25, the “Induction factor = Expression” value ([4]; 13 d) was 3.6 and the “Median” value ([4]; 13 days) was 1553.93. The “Induction factor = Expression” value ([4]; 15 d) was 2.8, the “Median” value ([4]; 15 days) was 1970.04 and the “Induction factor = Expression” value ([4]; 16 d) was 2.4. For the same compound, the “Median” value ([4]; 16 days) was 2013.49, the “Induction factor = Expression” value ([4]; 17 d) was 0.7 and the “Median” value ([4]; 17 days) was 1121.55. For the same compound, the “Induction factor = Expression” value ([5]; 0.25 d) was 0.9, the “Median” value ([5]; 0.25 days) was 175.49 and the “Induction factor = Expression” value ([5]; 1 d) was 0.4. The “Median” value ([5]; 1 day) was 70.99, the “Induction factor = Expression” value ([5]; 6 d) was 7.8 and the “Median” value ([5]; 6 days) was 1513.72. The “Induction factor = Expression” value ([5]; 8 d) was 11.0, the “Median” value ([5]; 8 days) was 2102.86 and the “Induction factor = Expression” value ([5]; 11 d) was 7.4. The “Median” value ([5]; 11 days) was 1580.30, the “Induction factor = Expression” value ([5]; 13 d) was 3.5 and the “Median” value ([5]; 13 days) was 208.99. The “Induction factor = Expression” value ([5]; 15 d) was 1.9, the “Median” value ([5]; 15 days) was 182.27 and the “Induction factor = Expression” value ([5]; 16 d) was 3.8. For the same compound, the “Median” value ([5]; 16 days) was 694.71, the “Induction factor = Expression” value ([5]; 17 d) was 2.3 and the “Median” value ([5]; 17 days) was 340.39.
